Test results taken from US5370861A, “Iodinated esters contrast medium and use” (Nycomed Imaging AS, priority 1989, dated 1994).
Each block holds one compound with its values, some of them ahead of it.

How the values were obtained:
[1] = In vitro biodegradation: hydrolysis with release of Isopaque in Seronorm, pH 7.4, 37° C (HPLC); format: in vitro ADME; conditions: seronorm serum, Seronorm (0.5 mg/ml), read-out: substance hydrolysed after 6 hours in Seronorm
Procedure: The following Examples are given by way of illustration only. Seronorm is a test serum available from Nycomed AS, Oslo, Norway.
(§1) The powdered product of Example 1 was suspended in Seronorm (0.5 mgml) at pH 7.4 and agitated at 37° C. As a control the experiment was also performed in phosphate buffered saline (PBS) at pH 7.4. At different time points samples were taken from the supernatant after centrifugation of the vial (4000 rpm, 10 rain). The release of Isopaque (5-(N-acetylamino)-3-(N-acetyl-N-methylamino)-2,4,6-triiodobenzene carboxylic acid) was analysed by HPLC. After 6 hours 100% of the substance was hydrolysed. In PBS only 1.1% was hydrolysed during the same period.

[2] = In vitro biodegradation control: hydrolysis in phosphate buffered saline (PBS), pH 7.4; format: physicochemical; conditions: read-out: substance hydrolysed in PBS
Procedure: as §1

hepatocytes = conditions: in vivo, iv; cited from earlier work
liver = test: CT studies in rabbit: contrast enhancement in the liver; format: in vivo, rabbits; conditions: dynamic CT, iohexol 350 mg I/ml
Procedure: Contrast enhancement in the liver was investigated in rabbits. Anaesthetized animals were placed in a Siemens CT scanner and injected with particles of Pharmaceutical Formulation 4 in the marginal ear vein. Particle concentration was 28 mg/ml. A particle dose corresponding to 75 mg I/kg gave an increase in liver contrast from a basal level of […] to about 120 HU. Thus, the contrast enhancement on this dose level was about 35-40 HU. […] The average iodine content in these livers was 1.1 mg I/g liver. […] About 8 times more iodine had to be injected in these animals to achieve the same contrast enhancement of the liver. With this vascular contrast medium, the enhancement was transient, lasting for one or two minutes.

- metabolised at 6 h [1]: 100%
- degraded at 6 h [2]: 1.1%
SMILES: CCOC(=O)OC(C)OC(=O)c1c(I)c(NC(C)=O)c(I)c(N(C)C(C)=O)c1I (stereo not drawn) [Example 1, 1-(Ethyloxycarbonyloxy)ethyl 5-(N-acetylamino)-3-(N-acetyl-N-methylamino)-2,4,6-triiodobenzenecarboxylate]

SMILES: CCOC(=O)c1c(I)cc(I)c(NC(=O)CCCCC(=O)Nc2c(I)cc(I)c(C(=O)OCC)c2I)c1I [ethyl ester of iodipamide, ethyl ester of the water soluble X-ray contrast agent, iodipamide]
- lipid vacuoles in the hepatocytes (hepatocytes): increase in lipid vacuoles in the hepatocytes

SMILES: CC(=O)N(CC(O)CO)c1c(I)c(C(=O)NCC(O)CO)c(I)c(C(=O)NCC(O)CO)c1I (stereo not drawn) [iohexol]
- duration of enhancement (liver): one or two
- iodine to be injected to achieve the same contrast enhancement of the liver, relative to Pharmaceutical Formulation 4 (liver): About 8 times
- nature of enhancement with vascular contrast medium (liver): transient
